≈ marks a conversion by molar mass, not a printed value. Like-named read-outs stand apart in the source and are kept apart here. Where only a bound is given, the exact number is not on record here.

Data on 14 compounds can be found in patent US5141943A, “5-benzyl barbiturate derivatives” (Brown University Research Foundation, priority 1990, dated 1992).

The nature of series [1]: Solubility in water at room temperature. Type of series: physicochemical.
Series [2] addresses uridine phosphorylase. The series can be described thus: Inhibition of uridine phosphorylase (mouse liver cytosol, uridine substrate). Type of series: biochemical. The following applies: for Ki: uridine 1 mM, pH 8, 37° C., 30 min, Dixon plots, read-out: APP Ki (apparent inhibition constant); for uridine phosphorylase inhibition compared with uracil / acyclouridine counterpart or analogue: comparison in words from Table I. The protocol:
The activity of the 5-benzyl barbiturates of this invention as inhibitors of uridine phosphorylase was measured essentially following the procedure of Naguib et al. (vol. 36, Biochem. Pharmac. pp. 2195-2201 (1987)), the disclosure of which is incorporated herein by reference. An abridged description of the protocol is described below.
Mouse livers for these experiments were obtained from Swiss Albino (CDl) mice (Charles River Laboratories, Boston, Mass.). The mice were killed by cervical dislocation, and the livers removed and washed with ice-cold normal saline (0.9%) before any further manipulation.
The saline solution was wiped off the organs with tissue paper, and the organs weighed and then cut into smaller pieces in ice-cold homogenization buffer (3:1, v/w) containing 20 mM potassium phosphate (pH 8), 1 mM EDTA, and 1 mM mercaptoethanol. The livers were then homogenized with a polytron homogenizer (Brinkman), and the homogenates centrifuged at 105,000 g for 1 hr at 4°. The supernatant fluids (cytosol) were collected and used as the enzyme source.
The assay mixture contained 20 mM potassium phosphate (pH 8), 1 mM EDTA, 1 mM mercaptoethanol, substrate (uridine, 9 mCi/mmol) and 40 μl of enzyme preparation in a final volume of 80 μl. Under these conditions the activity was linear with time and amount of enzyme. Apparent Ki values were estimated from Dixon plots (1/v vs[I]) of the data by a computer program with least squares fitting, using uridine (1 mM) and five different concentrations of the inhibitor within the range of 0.0625 μM and 1.0 μM.
Incubation was carried out at 37° C., for 30 min. The reaction was terminated by immersing the reaction tubes (1 ml Eppendorf tubes) in boiling water for 1 min. and then freezing the reaction tubes for at least 20 min. Proteins were removed by centrifugation, and 5 μl of the supernatant fluid spotted on silica gel TLC plates which had been prespotted with 5 μl of a standard mixture of 10 mM each uridine and uracil. The plates were then developed in a mixture of chloroform and methanol (90:10, v/v). Uridine and uracil were identified by UV quenching. (Rf values for uridine and uracil are 0.09 and 0.39, respectively.) Spots were then cut out and counted in 20 ml of Omnifluor-based scintillant.
Protein concentrations were determined by the method of Bradford, (Bradford, M. M., vol. 72, Analyt. Biochem. p. 248 (1976)) as described by the Bio-Rad Laboratories (Bio-Rad Laboratories, Bulletin 1069, Bio-Rad Laboratories, Richmond, Calif. (1979)), using bovine […] as a standard.

The conditions of series [3]: prolonged AZT administration, or high doses of uridine (background); cited from earlier work.
For series [4] the following is noted: in water at room temperature; acyclouridines of the art (background); cited from earlier work.
Series [5] concerns the target uridine phosphorylase. The following applies: *calculated from Niedzwicki, J. G. et al.; read-out: APP Ki (apparent inhibition constant); cited from earlier work.
Series [6] has as its system human bone marrow progenitor cells (HBMP). As to conditions: Somadossi et al. 1988; cited from earlier work.
Where [7] appears, read: water, in water, at room temperature, read-out: SOL. (solubility).

In the case of “5-benzyloxybenzylacetyl-1-[(1-hydroxy-2-ethoxy)methyl] barbiturate [BBCAB]”, in series [1] (in water, at room temperature), the “SOL. (solubility)” value was over 3000 µM. For the same compound, the Ki in series [2] stood at 2.6 µM.

In the case of `Cc1cn([C@H]2C[C@H](N=[N+]=[N-])[C@@H](CO)O2)c(=O)[nH]c1=O` [AZT, 3'-azido-3'-deoxythymidine], the toxic side effects result in series [3] is given as “suppression of bone marrow growth in the patient”.

`O=c1[nH]c(=O)n(COCCO)cc1Cc1ccccc1` [BAU]: the solubility in water result in series [4] was “about 1 mM”. In series [1] (water), this compound gave a solubility of 1000 µM (≈ 276 µg/mL). In addition, the Ki in series [2] was found to be 3.2 µM.

In the case of `O=C1NC(=O)C(Cc2ccccc2)C(=O)N1` [BB, 5-benzyl barbiturate], the solubility in series [1] (setting [7]) was over 3000 µM. For the same compound, the Ki in series [2] stood at 44 µM.

Regarding `O=C1NC(=O)N(COCCO)C(=O)C1Cc1cccc(OCc2ccccc2)c1` (centres unmarked) [BBAB, 5-benzyloxybenzyl-1-[(1-hydroxy-2-ethoxy)methyl] barbiturate], in series [1] (in water, at room temperature), the “water solubility compared with acyclouridines” value is listed as “significantly greater than that of the acyclouridines”. Further, in series [1] (setting [7]), the solubility was at least 3000 µM. Moreover, in series [2], the “uridine phosphorylase inhibition compared with uracil / acyclouridine counterpart or analogue” value is given as “further improves inhibition” and the Ki was 0.8 µM.

For the compound `O=c1[nH]c(=O)n(COCCO)cc1Cc1cccc(OCc2ccccc2)c1` [BBAU, 5-benzyl-oxybenzyl-acyclouridine], the solubility in water result in series [4] is reported as “about 1 mM”. Also, in series [1] (water), the solubility is at most 1000 µM. Also, the Ki in series [2] was 1.1 µM.

For the compound `O=C1NC(=O)C(Cc2cccc(OCc3ccccc3)c2)C(=O)N1` [BBB, 5-benzyloxybenzyl barbiturate], the solubility in series [1] (setting [7]) is over 3000 µM. For the same compound, in series [2], the “uridine phosphorylase inhibition compared with uracil / acyclouridine counterpart or analogue” value is listed as “significantly stronger uridine phosphorylase inhibitor than BBU” and the Ki came to 3 µM.

For the compound `O=c1[nH]cc(Cc2cccc(OCc3ccccc3)c2)c(=O)[nH]1` [BBU, 5-benzyloxybenzyl uracil], the solubility in series [1] (water) is at most 1000 µM.

For the compound `O=c1[nH]cc(Cc2ccccc2)c(=O)[nH]1` [BU], the solubility in series [1] (water) was at most 1000 µM. The Ki in series [5] is 54 µM.

In the case of `O=C1CC(=O)NC(=O)N1` [Barbiturate, barbituric acid], the solubility in series [1] (in water, at room temperature, read-out: SOL. (solubility)) was over 3000 µM. In series [2], the Ki is about 1500 µM.

Take `O=c1[nH]c(=O)n(COC(CO)CO)cc1Cc1cccc(OCc2ccccc2)c1` [HM-BBAU]: in series [4], the solubility in water entry is “about 1 mM”.

Turning to `COc1cccc(CC2C(=O)NC(=O)N(COCCOC(C)=O)C2=O)c1` (centres unmarked) [MBCAB, 5-Methoxybenzylacetyl acyclo barbiturate], in series [1] (setting [7]), the solubility was over 3000 µM. Further, in series [2], the Ki amounted to 1.9 µM.

For the compound `Nc1ccn([C@@H]2O[C@H](CO)[C@@H](O)[C@H]2O)c(=O)n1` [cytidine], the “reversal of toxic effects of AZT” value in series [6] is on record as “to a lesser extent”.

Regarding `O=c1ccn([C@@H]2O[C@H](CO)[C@@H](O)[C@H]2O)c(=O)[nH]1` [uridine], the “reversal of toxic effects of AZT” value in series [6] is “can reverse the toxic effects of AZT in human bone marrow progenitor cells (HBMP)”. In addition, in series [3], the toxic side effects entry was “toxic side effects, such as phlebitis and pyrogenic reactions”.

What is called solubility is the dissolved amount per volume that the medium holds.
